In patent US20230219965A1 (KSQ Therapeutics, Inc., priority 2020, published 2023) one finds half-life, IC50 and solubility data, which are given here for 22 molecules.

The nature of data set [1]: Liver microsomal metabolic stability, rat liver microsomes (RLM). To be noted: rat, liver microsomes, t1/2 (min) in RLM, 1 μM compound, 1 mg/mL microsomes, NADPH.
Method: Samples were prepared by adding 222.5 μL of a master solution (100 mM phosphate buffer and 1 mg/mL liver microsomes (HLM or RLM)) and 25 μL of a 10 mM NADPH solution to incubation plates, which were then warmed for 10 min. Each compound was separately dissolved in DMSO to prepare 10 mM stock solutions, which were then diluted to 100 μM with acetonitrile. A reaction was started by adding 2.5 μL of the 100 μM solution of each compound to separate incubation plates such that the final concentration of for each compound in each plate was 1 μM.
25 μL aliquots of each sample were taken at 0.5, 5, 10, 15, 20 and 30 minutes, and the reaction was stopped by adding 5 volumes of cold acetonitrile with IS (100 nM alprazolam, 200 nM caffeine and 100 nM tolbutamide). The samples were then centrifuged at 3,220 G for 30 minutes, and 100 μL of the supernatant fluid was mixed with 100 μL of ultra-pure H2O.
The samples were then analyzed by LC-MS/MS. Peak areas were determined from extracted ion chromatograms. Slope values (k) were determined by linear regression of the natural logarithm of the remaining percentage of the compound vs. incubation time curve. The in vitro half-life (in vitro t1/2) was determined from the slope value using the following equation:
Data set [2] can be described thus: Liver microsomal metabolic stability, human liver microsomes (HLM). The note with it: human, liver microsomes. On the technique in general: Microsomes from liver hold many membrane-bound enzymes, among them those of drug oxidation.
Data set [3] relates to Ub-PCNA levels in the nucleus of ES2 cells (USP1 activity). The data set can be described thus: ES2 Ub-PCNA immunofluorescence (IF) assay. In kind it is cell-based. To be noted: Homo sapiens, ES-2; ES2 cells, 3 hours, Ub-PCNA immunofluorescence; read-out: USP1 IC50 (Ub-PCNA). The procedure, abridged: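 Cells plated overnight, then compound-treated for 3 h at 37° C (0.3% DMSO final), methanol-fixed and stained with anti-Ub-PCNA plus DAPI. Per-nucleus Ub-PCNA intensity imaged; cells above the 95% cutoff of untreated wells counted as positive, and percent positive cells used to derive AC50.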

Data set [4] in a line: ADME solubility determination in PBS at pH 2.0 and pH 7.4. In kind it is physicochemical. To be noted: phosphate buffered saline, 25 °C, thermodynamic from solid. The procedure, abridged: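 Dried 10 mM DMSO stock residues taken up in PBS pH 7.4 or pH 2.0, shaken 24 h at 25° C. After centrifugation, supernatant quantified by LC-MS/MS against a standard of known concentration, with a dilution factor applied.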

The target of the next data set is USP1/UAF1 enzyme (Homo sapiens, UniProt O94782). The experiment in a line: USP1/UAF1 deubiquitination assay (ubiquitin-rhodamine 110 substrate). In kind it is biochemical. The note with it: read-out: USP1 IC50 (Ub-Rho). Put shortly:
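0.05 nM USP1/UAF1 was preincubated 10 min with compounds (dose response from 10 μM) in 50 mM Tris-HCl pH 7.8, 0.5 mM EDTA, 0.01% BSA, 1 mM DTT, 0.01% Tween-20. 150 nM ubiquitin-rhodamine 110 started the reaction, read kinetically 30 min at Ex480/Em540; IC50 by four-parameter fit versus no-enzyme and DMSO controls.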

Where [5] appears, read: pH 2, aqueous buffer, PBS pH 2.0, 25° C., read-out: Solubility at pH 2.0.
Setting [6] is: pH 7.4, aqueous buffer, PBS pH 7.4, 25° C., read-out: Solubility at pH 7.4.

SMILES strings stand for the structures. Read-outs that look alike come from different tables or passages of the source.

USP1/UAF1 enzyme, sequence (O94782 whole entry): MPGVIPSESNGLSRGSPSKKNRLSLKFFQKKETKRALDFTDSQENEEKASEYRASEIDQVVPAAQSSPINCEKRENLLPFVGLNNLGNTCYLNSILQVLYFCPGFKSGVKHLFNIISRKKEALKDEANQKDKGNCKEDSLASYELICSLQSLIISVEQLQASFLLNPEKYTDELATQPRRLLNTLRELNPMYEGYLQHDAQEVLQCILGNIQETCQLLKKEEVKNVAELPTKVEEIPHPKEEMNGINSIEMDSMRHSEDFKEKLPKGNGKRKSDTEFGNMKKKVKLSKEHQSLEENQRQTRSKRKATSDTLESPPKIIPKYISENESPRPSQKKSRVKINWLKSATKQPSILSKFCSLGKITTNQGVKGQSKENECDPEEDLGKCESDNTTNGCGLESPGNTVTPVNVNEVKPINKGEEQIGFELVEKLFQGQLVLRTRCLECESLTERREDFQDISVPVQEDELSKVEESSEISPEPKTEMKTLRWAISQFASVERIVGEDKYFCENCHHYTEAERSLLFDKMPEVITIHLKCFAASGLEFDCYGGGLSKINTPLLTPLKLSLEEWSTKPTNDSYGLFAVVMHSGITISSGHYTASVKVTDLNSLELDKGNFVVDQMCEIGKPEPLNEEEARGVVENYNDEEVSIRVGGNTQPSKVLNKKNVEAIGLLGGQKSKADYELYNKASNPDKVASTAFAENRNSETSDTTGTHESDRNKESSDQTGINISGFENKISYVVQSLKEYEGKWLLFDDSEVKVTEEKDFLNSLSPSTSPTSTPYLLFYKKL
USP1/UAF1 enzyme, sequence (Q8TAF3 whole entry partner): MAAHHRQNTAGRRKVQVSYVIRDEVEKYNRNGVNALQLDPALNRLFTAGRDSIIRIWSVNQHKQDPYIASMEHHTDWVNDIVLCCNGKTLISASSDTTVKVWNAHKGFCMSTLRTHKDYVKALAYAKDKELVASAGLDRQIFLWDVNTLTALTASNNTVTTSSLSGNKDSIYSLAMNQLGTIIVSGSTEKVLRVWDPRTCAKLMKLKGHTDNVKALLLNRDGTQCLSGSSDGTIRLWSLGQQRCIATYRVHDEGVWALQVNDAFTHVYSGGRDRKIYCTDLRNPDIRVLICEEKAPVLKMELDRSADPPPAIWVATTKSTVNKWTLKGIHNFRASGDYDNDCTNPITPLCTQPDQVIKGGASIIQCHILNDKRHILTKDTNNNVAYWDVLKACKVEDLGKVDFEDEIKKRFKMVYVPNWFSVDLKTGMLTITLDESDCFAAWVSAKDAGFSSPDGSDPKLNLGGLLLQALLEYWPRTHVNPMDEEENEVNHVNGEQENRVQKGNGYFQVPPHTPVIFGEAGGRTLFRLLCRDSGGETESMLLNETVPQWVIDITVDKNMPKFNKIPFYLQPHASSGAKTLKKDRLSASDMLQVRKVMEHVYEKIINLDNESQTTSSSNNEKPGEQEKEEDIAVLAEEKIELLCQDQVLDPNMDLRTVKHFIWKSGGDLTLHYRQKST

For orientation: half-life means the time in which the quantity being followed falls by half. A higher half-life goes with slow decline. What is called IC50 is the concentration at which inhibition is half-maximal. By solubility is commonly meant the dissolved amount per volume that the medium holds. Take `CCn1cc(C(F)(F)F)nc1-c1ccc(CN2C(=O)CCn3nc(-c4c(Cl)cnn4C(C)COC)cc32)cc1F` (stereo not drawn) [Example 160]: the half-life at 1 μM in data set [1] and in data set [2] was less than 25 min in each case. The figures for the concentration for half-maximal inhibition (IC50) (in data set [3]; on USP1/UAF1 enzyme) were 100 to 500 nM and less than 100 nM, respectively. The solubility at 24 h in data set [4] (setting [5]) and in data set [4] (setting [6]) was less than 10 µM throughout.
With `COc1ncnc(C2CC2)c1-c1nc2n(n1)CCC(=O)N2Cc1ccc(-c2nc(C(F)(F)F)cn2C(C)C)c(F)c1` [Example 164, 2-(4-cyclopropyl-6-methoxypyrimidin-5-yl)-4-(3-fluoro-4-(1-isopropyl-4-(trifluoromethyl)-1H-imidazol-2-yl)benzyl)-6,7-dihydro-[1,2,4]triazolo[1,5-α]pyrimidin-5(4H)-one], the half-life at 1 μM in data set [1] and in data set [2] was more than 25 min each time. For the same molecule, the IC50 (in data set [3]; at USP1/UAF1 enzyme) was less than 100 nM each time. Besides, the solubility at 24 h in data set [4] (setting [5]) and in data set [4] (setting [6]) was less than 10 µM in each case.
`COc1cc(CN2C(=O)CCn3nc(-c4c(Cl)cnn4C(C)C)nc32)ccc1-c1nc(C(F)(F)F)cn1C(C)C` [Example 165]: the half-life at 1 μM in data set [1] and in data set [2] was more than 25 min each time. In addition, the results for the IC50 (in data set [3]; at USP1/UAF1 enzyme) were 100 to 500 nM and less than 100 nM, respectively. For the same molecule, the solubility at 24 h in data set [4] (setting [5]) and in data set [4] (setting [6]) was less than 10 µM in each case.
In the case of `COc1cc(CN2C(=O)CCn3nc(-c4c(OC)ncnc4C4CC4)nc32)ccc1-c1nc(C(F)(F)F)cn1C(C)C` [Example 166], the half-life at 1 μM in data set [1] and in data set [2] was more than 25 min throughout. Moreover, the IC50 (in data set [3]; on USP1/UAF1 enzyme) was 100 to 500 nM throughout. In addition, the solubility at 24 h in data set [4] (setting [5]) and in data set [4] (setting [6]) was not below 10 µM in each case.
For `COc1ncnc(C2CC2)c1-c1nc2n(n1)CCC(=O)N2Cc1ccc(-c2nc(C(F)(F)F)cn2C(C)C)cc1` [Example 168], the half-life at 1 μM in data set [1] and in data set [2] was more than 25 min each time. Further, the IC50 (in data set [3]; at USP1/UAF1 enzyme) was less than 100 nM in each case. Moreover, the solubility at 24 h in data set [4] (setting [5]) and in data set [4] (setting [6]) was less than 10 µM throughout.
In the case of `COc1ncnc(C2CC2)c1-c1nc2n(n1)CCC(=O)N2C(C)c1ccc(-c2nc(C(F)(F)F)cn2C(C)C)cc1` (stereo not drawn) [Example 169], the half-life at 1 μM in data set [1] and in data set [2] was more than 25 min each time. Moreover, the IC50 in data set [3] is 100 to 500 nM; on USP1/UAF1 enzyme it was less than 100 nM. Besides, the solubility at 24 h in data set [4] (setting [5]) was not below 10 µM; in data set [4] (setting [6]), less than 10 µM.
As for `COc1ncnc(C2CC2)c1-c1nc2n(n1)CCC(=O)N2Cc1ccc(-c2nc(C(F)(F)F)cn2C)c(F)c1` [Example 170], the half-life at 1 μM in data set [1] and in data set [2] was more than 25 min throughout. For the same molecule, the IC50 (in data set [3]; on USP1/UAF1 enzyme) was less than 100 nM in each case. Besides, the solubility at 24 h in data set [4] (setting [5]) and in data set [4] (setting [6]) was not below 10 µM in each case.
With `CCn1cc(C(F)(F)F)nc1-c1ccc(CN2C(=O)CCn3nc(-c4c(OC)ncnc4C4CC4)nc32)cc1` [Example 171], the half-life at 1 μM in data set [1] and in data set [2] was more than 25 min each time. In addition, the IC50 (in data set [3]; at USP1/UAF1 enzyme) was less than 100 nM in each case. Moreover, the solubility at 24 h in data set [4] (setting [5]) and in data set [4] (setting [6]) was not below 10 µM throughout.
Take `COc1ncnc(C2CC2)c1-c1nc2n(n1)CCC(=O)N2Cc1ccc(-c2nc(C(F)(F)F)cn2C(C)C)c(Cl)c1` [Example 172]: the half-life at 1 μM in data set [1] and in data set [2] was more than 25 min each time. For the same molecule, the results for the IC50 (in data set [3]; at USP1/UAF1 enzyme) were 100 to 500 nM and less than 100 nM, respectively. The solubility at 24 h in data set [4] (setting [5]) and in data set [4] (setting [6]) was not below 10 µM in each case.
As for `COc1ncnc(C2CC2)c1-c1nc2n(n1)CCC(=O)N2[C@@H](C)c1ccc(-c2nc(C(F)(F)F)cn2C(C)C)c(F)c1` [Example 173], the half-life at 1 μM in data set [1] and in data set [2] was more than 25 min each time. Besides, the half-inhibitory concentration (IC50) (in data set [3]; on USP1/UAF1 enzyme) was less than 100 nM in each case. The solubility at 24 h in data set [4] (setting [5]) and in data set [4] (setting [6]) was not below 10 µM each time.
For the molecule `COc1ncnc(C2CC2)c1-c1nc2n(n1)CCC(=O)N2[C@H](C)c1ccc(-c2nc(C(F)(F)F)cn2C(C)C)c(F)c1` [Example 174], the half-life at 1 μM in data set [1] and in data set [2] was more than 25 min each time. Besides, the IC50 (in data set [3]; on USP1/UAF1 enzyme) was less than 100 nM throughout. Besides, the solubility at 24 h in data set [4] (setting [5]) and in data set [4] (setting [6]) was not below 10 µM in each case.
For the molecule `CCn1cc(C(F)(F)F)nc1-c1ccc(CN2C(=O)CCn3nc(-c4c(OC)ncnc4C4CC4)nc32)cc1Cl` [Example 175], the half-life at 1 μM in data set [1] and in data set [2] was more than 25 min throughout. Moreover, the half-inhibitory concentration (IC50) (in data set [3]; at USP1/UAF1 enzyme) was less than 100 nM in each case. In addition, the solubility at 24 h in data set [4] (setting [5]) and in data set [4] (setting [6]) was not below 10 µM in each case.
Turning to `CCn1cc(C(F)(F)F)nc1-c1c(F)cc(CN2C(=O)CCn3nc(-c4c(OC)ncnc4C4CC4)nc32)cc1OC` [Example 176], the half-life at 1 μM in data set [1] and in data set [2] was more than 25 min each time. Moreover, the concentration for half-maximal inhibition (IC50) (in data set [3]; on USP1/UAF1 enzyme) was less than 100 nM throughout. Further, the solubility at 24 h in data set [4] (setting [5]) and in data set [4] (setting [6]) was not below 10 µM in each case.
As to `CC(C)n1cc(C(F)(F)F)nc1-c1ccc([C@H](C)N2C(=O)CCn3nc(-c4c(Cl)cnn4C(C)C)nc32)cc1` [Example 177], the half-life at 1 μM was more than 25 min in data set [1] and less than 25 min in data set [2]. For the same molecule, the IC50 (in data set [3]; at USP1/UAF1 enzyme) was less than 100 nM each time. The solubility at 24 h in data set [4] (setting [5]) and in data set [4] (setting [6]) was less than 10 µM throughout.
As for `CC(C)n1cc(C(F)(F)F)nc1-c1ccc([C@@H](C)N2C(=O)CCn3nc(-c4c(Cl)cnn4C(C)C)nc32)cc1` [Example 178], the half-life at 1 μM in data set [1] and in data set [2] was less than 25 min throughout. The IC50 (in data set [3]; on USP1/UAF1 enzyme) was less than 100 nM in each case. In addition, the solubility at 24 h in data set [4] (setting [5]) is not below 10 µM; in data set [4] (setting [6]), less than 10 µM.
`CCn1cc(C(F)(F)F)nc1-c1ccc([C@@H](C)N2C(=O)CCn3nc(-c4c(Cl)cnn4C(C)C)nc32)cc1OC` [Example 180]: the half-life at 1 μM in data set [1] and in data set [2] was less than 25 min each time. For the same molecule, the concentration for half-maximal inhibition (IC50) in data set [3] was 100 to 500 nM; on USP1/UAF1 enzyme, less than 100 nM. In addition, the solubility at 24 h in data set [4] (setting [5]) and in data set [4] (setting [6]) was less than 10 µM in each case.
In the case of `CCn1cc(C(F)(F)F)nc1-c1ccc([C@H](C)N2C(=O)CCn3nc(-c4c(Cl)cnn4C(C)C)nc32)cc1F` [Example 181], the half-life at 1 μM in data set [1] was more than 25 min; in data set [2], less than 25 min. Further, the IC50 (in data set [3]; at USP1/UAF1 enzyme) was less than 100 nM in each case. Also, the solubility at 24 h in data set [4] (setting [5]) and in data set [4] (setting [6]) was less than 10 µM each time.
Turning to `CCn1cc(C(F)(F)F)nc1-c1ccc([C@@H](C)N2C(=O)CCn3nc(-c4c(Cl)cnn4C(C)C)nc32)cc1F` [Example 182], the half-life at 1 μM in data set [1] and in data set [2] was less than 25 min throughout. Moreover, the IC50 (in data set [3]; on USP1/UAF1 enzyme) was less than 100 nM in each case. Also, the solubility at 24 h in data set [4] (setting [5]) and in data set [4] (setting [6]) was less than 10 µM throughout.
Consider `CCn1cc(C(F)(F)F)nc1-c1ccc([C@H](C)N2C(=O)CCn3nc(-c4c(OC)ncnc4C4CC4)nc32)cc1` [Example 183], for which the figures for the half-life at 1 μM in data set [1] and in data set [2] were more than 25 min and less than 25 min, respectively. The IC50 (in data set [3]; at USP1/UAF1 enzyme) was less than 100 nM each time. Further, the solubility at 24 h in data set [4] (setting [5]) and in data set [4] (setting [6]) was not below 10 µM each time.
Turning to `CCn1cc(C(F)(F)F)nc1-c1ccc([C@@H](C)N2C(=O)CCn3nc(-c4c(OC)ncnc4C4CC4)nc32)cc1` [Example 184], the figures for the half-life at 1 μM in data set [1] and in data set [2] were less than 25 min and more than 25 min, respectively. For the same molecule, the IC50 (in data set [3]; at USP1/UAF1 enzyme) was less than 100 nM throughout. Also, the solubility at 24 h in data set [4] (setting [5]) and in data set [4] (setting [6]) was not below 10 µM throughout.
`CCn1cc(C(F)(F)F)nc1-c1ccc(CN2C(=O)CCn3nc(-c4c(Cl)cnn4C(C)C)nc32)cn1` [Example 186]: the half-life at 1 μM in data set [1] and in data set [2] was more than 25 min each time. For the same molecule, the figures for the IC50 (in data set [3]; at USP1/UAF1 enzyme) were 100 to 500 nM and less than 100 nM, respectively. Besides, the solubility at 24 h in data set [4] (setting [5]) and in data set [4] (setting [6]) was less than 10 µM each time.
Turning to `COc1ncnc(C2CC2)c1-c1nc2n(n1)CCC(=O)N2[C@@H](C)c1ccc(-c2nc(C(F)(F)F)cn2C(C)C)cc1` [Example 188], the half-life at 1 μM in data set [1] and in data set [2] was more than 25 min in each case. The IC50 in data set [3] was less than 100 nM; at USP1/UAF1 enzyme it was 100 to 500 nM. Also, the solubility at 24 h in data set [4] (setting [5]) and in data set [4] (setting [6]) was not below 10 µM in each case.
